In this assay the target is IRAK4 (Homo sapiens (Human), UniProt Q9NWZ3). Description: IRAK4 Kinase Assay. In kind it is biochemical. The conditions noted are these: IMAP fluorescence polarization, 0.5 nM GST tagged IRAK4, 100 μM ATP, 30 minutes at 25° C.; read-out: IRAK4 IC50.

Structures can show the parent of a compound that is named as a salt.

Sequence of IRAK4 (Q9NWZ3 whole entry): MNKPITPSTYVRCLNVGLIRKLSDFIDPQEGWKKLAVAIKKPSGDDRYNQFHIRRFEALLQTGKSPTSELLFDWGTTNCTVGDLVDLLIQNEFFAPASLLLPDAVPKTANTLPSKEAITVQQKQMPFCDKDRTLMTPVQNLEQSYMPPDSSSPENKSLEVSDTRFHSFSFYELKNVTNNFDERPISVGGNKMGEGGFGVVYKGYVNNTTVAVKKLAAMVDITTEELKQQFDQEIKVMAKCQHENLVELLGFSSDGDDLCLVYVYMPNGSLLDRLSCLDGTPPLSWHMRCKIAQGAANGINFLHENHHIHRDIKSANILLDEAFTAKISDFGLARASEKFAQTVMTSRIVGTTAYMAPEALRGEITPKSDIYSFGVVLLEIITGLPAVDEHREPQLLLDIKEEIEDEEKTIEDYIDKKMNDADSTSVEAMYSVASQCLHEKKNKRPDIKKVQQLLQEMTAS
Experimental: The kinase activity of IRAK4 is determined by its ability to catalyze the phosphorylation of a fluorescent polypeptide substrate. The extent of phosphorylation is measured using the IMAP technology (Molecular Devices) where the phosphorylated fluorescent substrate binds to the large M(III)-based nanoparticles which reduces the rotational speed of the substrate and thus increases its fluorescent polarization (FP).
20 μL reaction mixture contains 10 mM TriHCl, pH 7.2, 0.5 nM GST tagged IRAK4 (SignalChem), 100 nM fluorescent peptide substrate (RP7030, Molecular Devices), 100 μM ATP, 1 mM DDT, 1 mM MgCl2, and 0.01% Tween 20. The reaction is initiated by the addition of ATP. After incubation for 30 minutes at 25° C., 60 μL of Progressive IMAP Reagent (Molecular Devices) is added to stop the reaction. Change in RP7030's FP is determined by a FP reader (Analyst HT, LJL BioSystems).

As for `O=C(Nc1ccsc1C(F)(F)F)c1cnn2ccc(N3CCCNCC3)nc12` [Example 153, 5-(1,4-diazepan-1-yl)-N-[2-(trifluoromethyl)thiophen-3-yl]pyrazolo[1,5-a]pyrimidine-3-carboxamide trifluoroacetate], the IC50 worked out at 1010 nM.

With `N#Cc1ccccc1NC(=O)c1cnn2ccc(N3CCNCC3)nc12` [Example 274, N-(2-cyanophenyl)-5-piperazin-1-ylpyrazolo[1,5-a]pyrimidine-3-carboxamide trifluoroacetate], the IC50 was 660 nM. For the compound `O=C(Nc1cn(CC(F)F)nc1C(F)(F)F)c1cnn2ccc(N[C@@H]3CCCC[C@@H]3O)nc12` [Example 63, N-[1-(2,2-difluoroethyl)-3-(trifluoromethyl)-1H-pyrazol-4-yl]-5-{[(1R,2S)-2-hydroxycyclohexyl]amino} pyrazolo[1,5-a]pyrimidine-3-carboxamide trifluoroacetate], the IC50 was determined as 38 nM. To `Cn1cc(NC(=O)c2cnn3ccc(N4CC5CNC(C5)C4)nc23)c(C(F)F)n1` (centres unmarked) [Example 182, 5-[(3,6-diazabicyclo[3.2.1]oct-3-yl]-N-[3-(difluoromethyl)-1-methyl-1H-pyrazol-4-yl]pyrazolo[1,5-a]pyrimidine-3-carboxamide trifluoroacetate] belongs 14 nM; to `CC(C)n1cc(NC(=O)c2cnn3ccc(N4CCNCC4)nc23)c(C(F)(F)F)n1` [Example 298, N-[1-(1-methylethyl)-3-(trifluoromethyl)-1H-pyrazol-4-yl]-5-piperazin-1-ylpyrazolo[1,5-a]pyrimidine-3-carboxamide trifluoroacetate], 17 nM; to `N#Cc1ccccc1NC(=O)c1cnn2ccc(N[C@@H]3CCCNC3)nc12` [Example 270, N-(2-cyanophenyl)-5-[(3R)-piperidin-3-ylamino]pyrazolo[1,5-a]pyrimidine-3-carboxamide trifluoroacetate], 10 nM. On to `Cn1cc(NC(=O)c2cnn3ccc(N[C@H]4CNCC[C@@H]4F)nc23)c(C(F)(F)F)n1` (single isomer, unassigned) [Example 233, 5-{[(3R,4R)- or (3S,4S)-4-fluoropiperidin-3-yl]amino}-N-[1-methyl-3-(trifluoromethyl)-1H-pyrazol-4-yl]pyrazolo[1,5-a]pyrimidine-3-carboxamide], for which the IC50 is 0.5 nM. As to `CCN1CCCN(c2ccn3ncc(C(=O)Nc4cn(C)nc4C(F)(F)F)c3n2)CC1` [Example 10, 5-(4-ethyl-1,4-diazepan-1-yl)-N-[1-methyl-3-(trifluoromethyl)-1H-pyrazol-4-yl]pyrazolo[1,5-a]pyrimidine-3-carboxamide], the IC50 was 1100 nM. As to `Cn1cc(NC(=O)c2cnn3ccc(N4C[C@@H]5CC[C@H]4CN5)nc23)c(Cl)n1` (single isomer, unassigned) [Example 151, N-(3-chloro-1-methyl-1H-pyrazol-4-yl)-5-[(1S,4S)- or (1R,4R)-(2,5-diazabicyclo[2.2.2]oct-2-yl]pyrazolo[1,5-a]pyrimidine-3-carboxamide trifluoroacetate], the IC50 was 128 nM. Consider `N[C@@H]1[C@H](Nc2ccn3ncc(C(=O)Nc4cn(CC(F)F)nc4C(F)(F)F)c3n2)CCCC1(F)F` [Example 66, 5-{[(1R,2R)-2-amino-3,3-difluorocyclohexyl]amino}-N-[1-(2,2-difluoroethyl)-3-(trifluoromethyl)-1H-pyrazol-4-yl]pyrazolo[1,5-a]pyrimidine-3-carboxamide trifluoroacetate], for which the IC50 was 244 nM.

Regarding `Cn1cc(NC(=O)c2cnn3ccc(N4C[C@@H]5CC[C@H]4CN5)nc23)c(C#N)n1` (single isomer, unassigned) [Example 156, N-(3-cyano-1-methyl-1H-pyrazol-4-yl)-5-[(1S,4S)- or (1R,4R)-2,5-diazabicyclo[2.2.2]oct-2-yl]pyrazolo[1,5-a]pyrimidine-3-carboxamide trifluoroacetate], the IC50 came to 41 nM. As to `Cc1nc(-c2nn(C)cc2NC(=O)c2cnn3ccc(N[C@@H]4CCCC[C@@H]4N)nc23)no1` [Example 288, 5-{[(1R,2S)-2-aminocyclohexyl]amino}-N-[1-methyl-3-(5-methyl-1,2,4-oxadiazol-3-yl)-1H-pyrazol-4-yl]pyrazolo[1,5-a]pyrimidine-3-carboxamide], the IC50 is 10 nM. As for `Cn1cc(NC(=O)c2cnn3ccc(N4CC5CC4CN5)nc23)c(C(F)(F)F)n1` (centres unmarked) [Example 13, 5-(2,5-diazabicyclo[2.2.1]hept-2-yl)-N-[1-methyl-3-(trifluoromethyl)-1H-pyrazol-4-yl]pyrazolo[1,5-a]pyrimidine-3-carboxamide hydrochloride], the IC50 turned out to be 179 nM. To `Cn1cc(NC(=O)c2cnn3ccc(N[C@H]4CNC[C@@H](F)C4)nc23)c(C(F)(F)F)n1` [Example 257, 5-{[(3R,5S)-5-fluoropiperidin-3-yl]amino}-N-[1-methyl-3-(trifluoromethyl)-1H-pyrazol-4-yl]pyrazolo[1,5-a]pyrimidine-3-carboxamide hydrochloride] belongs 0.6 nM; to `O=C(Nc1cscc1C(F)F)c1cnn2ccc(N3CCCNCC3)nc12` [Example 120, 5-(1,4-diazepan-1-yl)-N-[4-(difluoromethyl)thiophen-3-yl]pyrazolo[1,5-a]pyrimidine-3-carboxamide trifluoroacetate], 84 nM; to `Cn1cc(NC(=O)c2cnn3ccc(N4CCNCCC45CC5)nc23)c(C(F)(F)F)n1` [Example 95, 5-(4,7-diazaspiro[2.6]non-4-yl)-N-[1-methyl-3-(trifluoromethyl)-1H-pyrazol-4-yl]pyrazolo[1,5-a]pyrimidine-3-carboxamide trifluoroacetate], 789 nM. In the case of `Cn1cc(NC(=O)c2cnn3ccc(N4C5CCC6NC5CCC64)nc23)c(C(F)(F)F)n1` [Example 102, 5-(2,7-diazatricyclo[4.4.0.0~3,8~]dec-2-yl)-N-[1-methyl-3-(trifluoromethyl)-1H-pyrazol-4-yl]pyrazolo[1,5-a]pyrimidine-3-carboxamide trifluoroacetate], the IC50 worked out at 163 nM. In the case of `Cn1cc(NC(=O)c2cnn3ccc(N[C@H]4CCCCC[C@H]4N)nc23)c(C(F)(F)F)n1` (single isomer, unassigned) [Example 55, 5-{[(1R,2S)- or (1S,2R)-2-aminocycloheptyl]amino}-N-[1-methyl-3-(trifluoromethyl)-1H-pyrazol-4-yl]pyrazolo[1,5-a]pyrimidine-3-carboxamide] it was 8 nM.

`N[C@H]1CCCC[C@H]1Nc1ccn2ncc(C(=O)Nc3cn(C(F)F)nc3C(F)(F)F)c2n1` [Example 296, 5-{[(1R,2S)-2-aminocyclohexyl]amino}-N-[1-(difluoromethyl)-3-(trifluoromethyl)-1H-pyrazol-4-yl]pyrazolo[1,5-a]pyrimidine-3-carboxamide trifluoroacetate]: the IC50 came to 2 nM.

Take `Cn1cc(NC(=O)c2cnn3ccc(N4CCNC(C)(C)C4)nc23)c(C(F)(F)F)n1` [Example 30, 5-(3,3-dimethylpiperazin-1-yl)-N-[1-methyl-3-(trifluoromethyl)-1H-pyrazol-4-yl]pyrazolo[1,5-a]pyrimidine-3-carboxamide trifluoroacetate]: the IC50 was 71 nM.

The values are drawn from patent publication US10329294B2, “Pyrazolopyrimidine inhibitors of IRAK4 activity” (MERCK SHARP & DOHME CORP., priority 2015, dated 2019).
